Data: patent US20190298740A1, “METHODS AND COMPOSITIONS FOR TREATING HALLUCINATIONS AND CONDITIONS RELATED TO THE SAME” (Enterin, Inc., priority 2018, published 2019)
Where two headings read alike, the source gives them in different places.

Columns and labels:
[1] = Safety and adverse event profile, Phase 2 trial; format: in vivo, human;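 for Diarrhea, common adverse events by dose: number of subjects experiencing the event at each dose level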;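 for Nausea, common adverse events by dose: number of subjects experiencing the event at each dose level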;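 for Vomiting, common adverse events by dose: number of subjects experiencing the event at each dose level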
Source text: Tolerability limits included diarrhea or vomiting.

[2] = Pharmacokinetics of orally administered squalamine (ENT-01), Phase 2 trial; format: in vivo; conditions: human; for AUC(0-t) / half-life / Cmax / Tmax: po; for Cmax: mean, approximate; for Tmax: read-out: Tmax (median value)
Method: PK data were collected on the 10 patients enrolled in Stage 1 and 10 patients enrolled in Stage 2 to determine the extent of systemic absorption. In Stage 1, PK data were obtained at each visit, pre-medication, at 1, 2, 4, 8 and 24 hours (Table 11). In Stage 2, PK was measured on days 1 and 6 of the randomization period pre-medication, at 1, 2, 4 and 8 hours (Table 12).
The mean Cmax, Tmax and T1/2 and AUC of the squalamine ion following squalamine (ENT-01) oral dosing for Stage 1 patients. The PK analyses are only approximate, as the lower limit of the validated concentration range was 10 ng/ml; most of the measured concentrations fell below that value. The mean Cmax, Tmax and T1/2 and AUC of the squalamine ion following squalamine (ENT-01) oral dosing for Stage 2 patients. The PK analyses are only approximate, as the lower limit of the validated concentration range was 0.5 ng/ml.

patients with PD = experiment: Sleep diary: total sleep time and REM-behavior disorder; format: in vivo, human
Source text: (5) Sleep Diary (participants completed a sleep diary on a daily basis throughout the study. The diaries included time into bed and estimated time to sleep as well as wake time and duration during the night);
Exploratory end-points, in addition to constipation, included for example, (i) depression assessed using the Beck Depression Inventory (BDI-II) (Steer et al. 2000) and Unified Parkinson's Disease Rating Scale (UPDRS); (ii) cognition assessed using the Mini Mental State Examination (MMSE) (Palsteia et al. 2018), Unified Parkinson's Disease Rating Scale (UPDRS), and Trail Making Test (TMT); (iii) sleep and REM-behavior disorder (RBD) using a daily sleep diary, I-Button Temperature Assessment, a REM sleep behavior disorder (RBD) questionnaire (RBDQ) (Stiasny-Kolster et al. 2007), and the UPDRS; (iv) hallucinations assessed using the PD hallucinations questionnaire (PDHQ) (Papapetropoulos et al. 2008), the UPDRS, and direct questioning; (v) fatigue using the Parkinson's Disease Fatigue Scale (PFS-16) and the UPDRS; (vi) motor functions using the UPDRS; and (vii) non-motor functions using the UPDRS.

[3] = in vivo, 50 mg, Stage 1, 50 mg oral, 10 patients
[4] = in vivo, 100 mg, Stage 2, 100 mg oral daily, 4 patients (2 visits each)
[5] = in vivo, 175 mg, Stage 1, 175 mg oral, 7 patients
[6] = in vivo, 175 mg, Stage 2, 175 mg oral daily, 5 patients (2 visits each)
[7] = plasma, 25 mg, Stage 1, 25 mg oral, 9 patients
[8] = plasma, 75 mg, Stage 1, 75 mg oral, 9 patients
[9] = plasma, 75 mg, Stage 2, 75 mg oral daily, 1 patient (2 visits)
[10] = plasma, 100 mg, Stage 1, 100 mg oral, 9 patients
[11] = plasma, 125 mg, Stage 1, 125 mg oral, 9 patients
[12] = plasma, 200 mg, Stage 1, 200 mg oral, 6 patients

## CC(C)[C@@H](CC[C@@H](C)[C@H]1CC[C@H]2[C@@H]3[C@H](O)C[C@H]4C[C@@H](NCCCNCCCCN)CC[C@]4(C)[C@H]3CC[C@]12C)OS(=O)(=O)O (single isomer, unassigned) [squalamine (ENT-01)]
[1]; Stage 1, 25 mg
  Diarrhea, common adverse events by dose: 1
  Nausea, common adverse events by dose: 0
  Vomiting, common adverse events by dose: 0
[1]; Stage 1, 50 mg
  Diarrhea, common adverse events by dose: 1
  Nausea, common adverse events by dose: 0
  Vomiting, common adverse events by dose: 0
[1]; Stage 1, 75 mg
  Diarrhea, common adverse events by dose: 1
  Nausea, common adverse events by dose: 0
  Vomiting, common adverse events by dose: 0
[1]; Stage 1, 100 mg
  Diarrhea, common adverse events by dose: 0
  Nausea, common adverse events by dose: 1
  Vomiting, common adverse events by dose: 1
[1]; Stage 1, 125 mg
  Diarrhea, common adverse events by dose: 1
  Nausea, common adverse events by dose: 2
  Vomiting, common adverse events by dose: 1
[1]; Stage 1, 150 mg
  Diarrhea, common adverse events by dose: 1
  Nausea, common adverse events by dose: 0
  Vomiting, common adverse events by dose: 0
[1]; Stage 1, 175 mg
  Diarrhea, common adverse events by dose: 1
  Nausea, common adverse events by dose: 1
  Vomiting, common adverse events by dose: 0
[1]; Stage 1, 200 mg
  Diarrhea, common adverse events by dose: 0
  Nausea, common adverse events by dose: 2
  Vomiting, common adverse events by dose: 0
[1]; Stage 2, 75 mg
  Diarrhea, common adverse events by dose: 7
  Dizziness (lightheadedness included), common adverse events by dose: 8
  Nausea, common adverse events by dose: 3
[1]; Stage 2, 100 mg
  Diarrhea, common adverse events by dose: 10
  Dizziness (lightheadedness included), common adverse events by dose: 7
  Nausea, common adverse events by dose: 12
[1]; Stage 2, 125 mg
  Diarrhea, common adverse events by dose: 3
  Dizziness (lightheadedness included), common adverse events by dose: 8
  Nausea, common adverse events by dose: 4
[1]; Stage 2, 150 mg
  Diarrhea, common adverse events by dose: 2
  Dizziness (lightheadedness included), common adverse events by dose: 2
  Nausea, common adverse events by dose: 11
[1]; Stage 2, 175 mg
  Diarrhea, common adverse events by dose: 1
  Dizziness (lightheadedness included), common adverse events by dose: 0
  Nausea, common adverse events by dose: 12
[1]; Stage 2, 200 mg
  Diarrhea, common adverse events by dose: 3
  Nausea, common adverse events by dose: 6
[1]; Stage 2, 225 mg
  Diarrhea, common adverse events by dose: 3
  Nausea, common adverse events by dose: 1
[1]; Stage 2, 250 mg
  Diarrhea, common adverse events by dose: 2
[1]; both stages
  Course of all other AEs: resolved spontaneously without discontinuation
[2]; in vivo, 25 mg, Stage 1, 25 mg oral, 9 patients, read-out: AUC0-8hr
  AUC(0-t): 10.8 ng·h/mL
[2]; in vivo, 25 mg, Stage 1, 25 mg oral, 9 patients, read-out: AUC0-16hr
  AUC(0-t): 19.6 ng·h/mL
[2]; in vivo, 25 mg, Stage 1, 25 mg oral, n = 3, read-out: T½ (converted)
  half-life: 2.6 h
[2]; [3]
  Cmax: 3.73 ng/mL
  Tmax: 2 h
[2]; in vivo, 50 mg, Stage 1, 50 mg oral, 10 patients, read-out: AUC0-8hr
  AUC(0-t): 18.5 ng·h/mL
[2]; in vivo, 50 mg, Stage 1, 50 mg oral, 10 patients, read-out: AUC0-16hr
  AUC(0-t): 33.1 ng·h/mL
[2]; in vivo, 50 mg, Stage 1, 50 mg oral, n = 3, read-out: T½ (converted)
  half-life: 3.4 h
[2]; [4]
  Cmax: 17.7 ng/mL
  Tmax: 1 h
[2]; in vivo, 100 mg, Stage 2, 100 mg oral daily, 4 patients (2 visits each), read-out: AUC0-8 hr
  AUC(0-t): 70.3 ng·h/mL
[2]; in vivo, 100 mg, Stage 2, 100 mg oral daily, n = 5, read-out: T1/2 (converted)
  half-life: 4.8 h
[2]; in vivo, 150 mg, Stage 1, 150 mg oral, 7 patients, read-out: AUC0-8hr
  AUC(0-t): 31.5 ng·h/mL
[2]; in vivo, 150 mg, Stage 1, 150 mg oral, 7 patients, read-out: AUC0-16hr
  AUC(0-t): 64 ng·h/mL
[2]; in vivo, 150 mg, Stage 1, 150 mg oral, 7 patients
  Tmax: 2 h
[2]; in vivo, 150 mg, Stage 1, 150 mg oral, n = 4, read-out: T½ (converted)
  half-life: 5.6 h
[2]; [5]
  Cmax: 10.3 ng/mL
  Tmax: 2 h
[2]; in vivo, 175 mg, Stage 1, 175 mg oral, 7 patients, read-out: AUC0-8hr
  AUC(0-t): 49.7 ng·h/mL
[2]; in vivo, 175 mg, Stage 1, 175 mg oral, n = 6, read-out: T½ (converted)
  half-life: 9.1 h
[2]; [6]
  Cmax: 11.8 ng/mL
  Tmax: 2 h
[2]; in vivo, 175 mg, Stage 2, 175 mg oral daily, 5 patients (2 visits each), read-out: AUC0-8 hr
  AUC(0-t): 66.8 ng·h/mL
[2]; in vivo, 175 mg, Stage 2, 175 mg oral daily, n = 6, read-out: T1/2 (converted)
  half-life: 10 h
[2]; [7]
  Cmax: 2.84 ng/mL
  Tmax: 1 h
[2]; [8]
  Cmax: 4.33 ng/mL
  Tmax: 2 h
[2]; plasma, 75 mg, Stage 1, 75 mg oral, 9 patients, read-out: AUC0-8hr
  AUC(0-t): 18.4 ng·h/mL
[2]; plasma, 75 mg, Stage 1, 75 mg oral, 9 patients, read-out: AUC0-16hr
  AUC(0-t): 29.8 ng·h/mL
[2]; plasma, 75 mg, Stage 1, 75 mg oral, n = 2, read-out: T½ (converted)
  half-life: 2.8 h
[2]; [9]
  Cmax: 10 ng/mL
  Tmax: 3 h
[2]; plasma, 75 mg, Stage 2, 75 mg oral daily, 1 patient (2 visits), read-out: AUC0-8 hr
  AUC(0-t): 59 ng·h/mL
[2]; plasma, 75 mg, Stage 2, 75 mg oral daily, n = 1, read-out: T1/2 (converted)
  half-life: 5.5 h
[2]; [10]
  Cmax: 6.18 ng/mL
  Tmax: 2 h
[2]; plasma, 100 mg, Stage 1, 100 mg oral, 9 patients, read-out: AUC0-8hr
  AUC(0-t): 29.6 ng·h/mL
[2]; plasma, 100 mg, Stage 1, 100 mg oral, 9 patients, read-out: AUC0-16hr
  AUC(0-t): 51.5 ng·h/mL
[2]; plasma, 100 mg, Stage 1, 100 mg oral, n = 5, read-out: T½ (converted)
  half-life: 3.9 h
[2]; [11]
  Cmax: 9.63 ng/mL
  Tmax: 2 h
[2]; plasma, 125 mg, Stage 1, 125 mg oral, 9 patients, read-out: AUC0-8hr
  AUC(0-t): 43.1 ng·h/mL
[2]; plasma, 125 mg, Stage 1, 125 mg oral, 9 patients, read-out: AUC0-16hr
  AUC(0-t): 77.7 ng·h/mL
[2]; plasma, 125 mg, Stage 1, 125 mg oral, n = 4, read-out: T½ (converted)
  half-life: 3.9 h
[2]; plasma, 150 mg, Stage 1, 150 mg oral, 7 patients
  Cmax: 6.27 ng/mL
[2]; plasma, 175 mg, Stage 1, 175 mg oral, 7 patients, read-out: AUC0-16hr
  AUC(0-t): 91.2 ng·h/mL
[2]; [12]
  Cmax: 15.1 ng/mL
  Tmax: 2 h
[2]; plasma, 200 mg, Stage 1, 200 mg oral, 6 patients, read-out: AUC0-8hr
  AUC(0-t): 78.3 ng·h/mL
[2]; plasma, 200 mg, Stage 1, 200 mg oral, 6 patients, read-out: AUC0-16hr
  AUC(0-t): 157 ng·h/mL
[2]; plasma, 200 mg, Stage 1, 200 mg oral, n = 5, read-out: T½ (converted)
  half-life: 9 h
[2]; plasma, Stage 1, oral dosing up to 200 mg (114 mg/m^2), compared with prior phase 1 IV data, read-out: Approximate oral bioavailability
  bioavailability: ~0.1%
Patients with PD; Stage 2
  Dose beyond which total sleep time was consistently higher than baseline: > 125 mg
Patients with PD; at 250 mg, baseline 7.1 hours
  Total sleep time: 8.4 h
Patients with PD; at maximal dose, baseline 2.2
  Frequency of arm or leg thrashing (sleep diary): 0 episodes/week
